These results are taken from US9365851B2, “Spalt-like transcription factor 4 (SALL4) and uses thereof” (National University of Singapore, priority 2011, dated 2016).

One data set deals with SALL4A and SALL4B. As to the kind of experiment: SALL4 knock-down in endometrial cancer cells (Western blot, qRT-PCR). Type of data set: cell-based, human. Particulars: AN3CA and HEC-1A. The source says: In brief, the expression plasmids for human SALL4A and SALL4B were constructed using FUW-Luc-mCh-puro vector (FIG. 43A). SALL4A or SALL4B mutant preserving the same amino acid sequence, but containing triple-point mutations within the SALL4shRNA1 target nucleotide sequence, which renders the transgenes resistant to SALL4 shRNA targeting, were generated using QuikChange site-directed mutagenesis kit (Stratagene) and confirmed by sequencing. Short hairpin RNAs set for human SALL4 in pLKO.1-puro vector were purchased from Open Biosystems (RHS3979) and knockdown efficiency was further evaluated. Two of them, designated as SALL4shRNA1 and SALL4shRNA 2, were selected for subsequent experiments. The sequences for SALL4 shRNAs and Scramble shRNA are listed as following: SALL4shRNA1: […] (SEQ ID NO: 3); SALL4shRNA 2: CTATTTAGCCAAAGGCAAA (SEQ ID NO: 2); Scr-shRNA: […] (SEQ ID NO: 14)
To assess the biological functional role of SALL4 in endometrial cancer, first evaluated was SALL4 expression in a panel of six endometrial cancer cell lines using quantitative real-time PCR to select for appropriate models for our functional studies (FIG. 40). […]

The subject of data set [1] is H661 lung carcinoma cells. As to the kind of experiment: MTS assay in lung carcinoma cells after knock-down. Type of data set: cell-based. From the text: FIGS. 16A-16B: Loss of SALL4 in lung cancer cells that express high level of SALL4 decreases cell viability. (16A) qPCR (bar chart) and western blot were done to confirm the dwonregulation of SALL4 RNA (qPCR) and protein (western blot) expression levels upon SALL4 gene knockdown by shRNA (E5) compared to the control (SC).

A further data set has as its system HDAC1 and HDAC2. In words: Anti-FITC pull-down from HL60 cell lysates, immunoblot for HDAC1 and HDAC2. Type of data set: binding, human. How it is done: FIG. 18: SALL4 peptide interacts with various components of the NuRD complex. Cell lysates from HL60 cells were mixed with wild type (wt) or mutant (mut) peptides end-labeled with FITC and immunoprecipitated with anti-FITC antibody (Santa Cruz). The complexes were pulled down with Dynabeads Antibody Coupling Kit (Invitrogen) according to the manufacturer's instructions. The samples were immunoblotted and probed for HDAC1 and HDAC2. […] The specificity was tested with mouse IgG instead of anti-FITC antibody.

On to “CTATTTAGCCAAAGGCAAA (short hairpin RNA, chemistry and delivery not given here, further chemistry not given here) [E5 shRNA]”, for which the “down-regulation of SALL4A and SALL4B” value with SALL4A and SALL4B was “could down-regulate SALL4A and SALL4B efficiently”. For the same substance, the “cell viability (MTS)” value in data set [1] is listed as “decrease of cell viability”.

As to “H-MSRRKQAKPQHI-OH [wt peptide, MSRRKQAKPQHI]”, in the data set on HDAC1 and HDAC2, the “binding to HDAC1 and HDAC2” value is “several folds higher activity than the mutant”.
